Assays:
[1] = system: mclk1 −/− ES cells; assay: Sensitivity to cell death-inducing agents (trypan blue exclusion); type: cell-based, mouse; settings: for Sensitivity of mclk1 −/− ES cells to the cell death-inducing agent: compared with mclk1 +/+ cells, etoposide 20 μM 24 h, anisomysin 2 μM 24 h, staurosporine 0.4 μM 24 h, all-trans retinoic acid 1 μM 96 h, sodium azide 15 μM 24 h
Description: We tested serum starvation (48 hours) and treatment with etoposide (20 μM, 24 hours), anisomysin (2 μM, 24 hours), staurosporine (0.4 μM; 24 hours), all-trans retinoic acid (1 μM, 96 hours) and sodium azide (15 μM, 24 hours).

[2] = system: mclk1 +/+ ES cells; assay: Reactive oxygen species measurement (DCHF-DA fluorescence); type: cell-based, mouse; settings: for Basal ROS levels, percent of the wild-type phenotype / Induced ROS levels, percent of the wild-type phenotype: number in brackets; for Induced ROS levels: oxidative stress induced by 0.1 mM FeSO4 and 0.2 mM sodium ascorbate
Description: (§1) For the fluorimetric measurement of ROS, cells were incubated with 10 μM DCHF-DA (Molecular Probes) for 20 min at 37° C. ROS levels were measured fluorimetrically with excitation and emission wavelenghts of 495 nm and 530 nm, respectively. Oxidative stress was induced by incubating the cells loaded with DCHF-DA with 0.1 mM FeSO4 and 0.2 mM sodium ascorbate.

[3] = system: mclk1 −/− ES cells; assay: as above; type: cell-based, mouse; settings: for Basal ROS levels, percent of the wild-type phenotype / Induced ROS levels, percent of the wild-type phenotype: number in brackets; for Induced ROS levels: oxidative stress induced by 0.1 mM FeSO4 and 0.2 mM sodium ascorbate
Description: as §1

[4] = system: mclk1 +/+ ES cells; assay: Growth rate (cell multiplication); type: cell-based, mouse; settings: for Cell multiplication, percent of the wild-type phenotype: number in brackets; for Cell multiplication: number of cells on day 5, day 1 being 1 × 10^5
Description: (§2) Cells were seeded in six-well dishes at 1×10^5/well in ES cell medium with or without supplements (UQ9: 0.16 μM, sodium pyvurate: 110 mg/L). At different time points, the cells were trypsinized and counted with a hemocytometer. The cells were also analyzed by the trypan blue exclusion method 24 hours after treatment with menadione (6 μM).

[5] = system: mclk1 −/− ES cells; assay: Growth rate (cell multiplication); type: cell-based, mouse; settings: for Cell multiplication, percent of the wild-type phenotype: number in brackets; for Cell multiplication: number of cells on day 5, day 1 being 1 × 10^5
Description: as §2

[6] = system: mclk1 +/+ ES cells; assay: Oxygen consumption; type: cell-based, mouse; design: Oxygen consumption: scale not given here; settings: for Oxygen consumption, percent of the wild-type phenotype: number in brackets
[7] = system: mclk1 +/+ ES cells; assay: Cell death assay: resistance to menadione (trypan blue exclusion); type: cell-based, mouse; settings: for Resistance to menadione [% viability]: 24 hours in menadione 6 μM, with the supplement named as label; for Resistance to menadione, percent of the wild-type phenotype: number in brackets
Description: as §2

[8] = system: mclk1 −/− ES cells; assay: as above; type: cell-based, mouse; settings: for Resistance to menadione [% viability]: 24 hours in menadione 6 μM, with the supplement named as label; for Resistance to menadione, percent of the wild-type phenotype: number in brackets
Description: as §2

[9] = system: mclk1 −/− ES cells; assay: LIF requirement assay; type: cell-based, mouse; settings: number in brackets
Description: (§3) ES cells were plated at a density of 500 cells/cm^2 in gelatin-coated 6-well plates in ES cell medium containing various concentration of LIF. Three days after inoculation, the proportion of undifferentiated colonies was determined after scoring the morphology of 300 randomly chosen colonies.

[10] = system: mclk1 +/+ ES cells; assay: LIF requirement assay; type: cell-based, mouse; design: LIF requirement [% undifferentiated colonies, n = 300]: dose or concentration left out as unconfirmed; settings: for LIF requirement [% undifferentiated colonies, n = 300]: day 3, medium with LIF; for LIF requirement, percent of the wild-type phenotype: number in brackets
Description: as §3

[11] = system: mclk1 −/− ES cells; assay: Oxygen consumption; type: cell-based, mouse; settings: for Oxygen consumption, percent of the wild-type phenotype: number in brackets; for Effect on low respiration, slow growth, and LIF resistance phenotypes: sentence also covers growth and LIF assays
[12] = molecular target: T1, Mitochondrial complex II (Mus musculus, UniProt Q9CQA3+Q9CXV1+Q9CZB0); assay: Mitochondrial complex II activity of mclk1 −/− ES cells; type: biochemical
T1 construct: mitochondria (containing 50 μg protein) were pre-incubated with reaction buffer; endogenous in cells; host or cells: mitochondria isolated from mouse mclk1 +/+ and mclk1 -/- ES cells
Description: Mitochondrial complex II activity was measured as follows: mitochondria (containing 50 μg protein) were pre-incubated with reaction buffer ([…]) for 10 minutes at room temperature. The reaction was started by adding 2 μg/ml Antimycin A, 2 μg/ml Rotenone, 2 mM KCN, 50 μM 2,6-Dichlorophenolindophenol (Sigma) in the presence or absence of 65 μM Q1. The linear decrease in absorbance at 600 nm was recorded (ε=21 mM-1 cm^−1).

[13] = mclk1 −/− ES cells, number in brackets

T1 sequence (Q8K2B3 43-664 partner): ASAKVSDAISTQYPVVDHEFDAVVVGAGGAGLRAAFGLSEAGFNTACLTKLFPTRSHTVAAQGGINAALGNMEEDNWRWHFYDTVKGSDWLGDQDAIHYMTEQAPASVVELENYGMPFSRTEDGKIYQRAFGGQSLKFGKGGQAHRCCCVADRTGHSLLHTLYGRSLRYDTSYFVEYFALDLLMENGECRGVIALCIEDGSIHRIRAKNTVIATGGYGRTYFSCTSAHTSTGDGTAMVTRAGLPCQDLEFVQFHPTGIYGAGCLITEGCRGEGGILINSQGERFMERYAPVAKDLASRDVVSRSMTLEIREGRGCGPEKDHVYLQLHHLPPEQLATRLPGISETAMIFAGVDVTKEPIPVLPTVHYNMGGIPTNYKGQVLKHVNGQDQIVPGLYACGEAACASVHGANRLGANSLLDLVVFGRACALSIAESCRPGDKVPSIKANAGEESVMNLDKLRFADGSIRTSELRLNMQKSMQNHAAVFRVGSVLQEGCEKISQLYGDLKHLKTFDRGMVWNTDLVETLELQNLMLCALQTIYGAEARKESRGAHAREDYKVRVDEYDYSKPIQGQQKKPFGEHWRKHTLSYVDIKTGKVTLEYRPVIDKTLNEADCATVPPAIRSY
T1 sequence (Q9CQA3 31-282): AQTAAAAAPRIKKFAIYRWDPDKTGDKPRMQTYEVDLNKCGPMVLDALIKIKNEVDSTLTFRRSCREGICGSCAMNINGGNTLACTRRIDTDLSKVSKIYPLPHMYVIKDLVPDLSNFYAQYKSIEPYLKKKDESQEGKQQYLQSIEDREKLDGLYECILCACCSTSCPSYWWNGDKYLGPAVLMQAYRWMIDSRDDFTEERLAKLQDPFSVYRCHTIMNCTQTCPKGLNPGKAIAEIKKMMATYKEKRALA
T1 sequence (Q9CZB0 30-169): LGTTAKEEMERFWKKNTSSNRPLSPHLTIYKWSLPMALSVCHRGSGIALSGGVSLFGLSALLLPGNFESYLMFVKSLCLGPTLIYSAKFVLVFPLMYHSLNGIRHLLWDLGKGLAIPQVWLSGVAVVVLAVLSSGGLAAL
T1 sequence (Q9CXV1 57-159): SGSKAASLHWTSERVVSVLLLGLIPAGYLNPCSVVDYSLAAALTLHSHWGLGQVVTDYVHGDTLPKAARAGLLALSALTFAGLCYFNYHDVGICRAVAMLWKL

CC1=C(/C=C/C(C)=C/C=C/C(C)=C/C(=O)O)C(C)(C)CCC1 [all-trans retinoic acid]
Sensitivity of mclk1 −/− ES cells to the cell death-inducing agent [1]: resistant

COc1ccc(C[C@H]2NC[C@H](O)[C@H]2OC(C)=O)cc1 [anisomycin]
Sensitivity of mclk1 −/− ES cells to the cell death-inducing agent [1]: resistant

CC(=O)C(=O)[O-].[Na+] [Sodium pyruvate, sodium pyruvate]
Basal ROS levels [2]: 4.1 ± 0.3 Fluorescence Unit × 100/μg pro
Basal ROS levels, percent of the wild-type phenotype [2]: (100) percent of the wild-type phenotype
Induced ROS levels, percent of the wild-type phenotype [2]: (102) percent of the wild-type phenotype
Induced ROS levels [2]: 11.8 ± 1.2 Fluorescence Unit × 100/μg Pro
Basal ROS levels [3]: 2.3 ± 0.2 Fluorescence Unit × 100/μg pro
Basal ROS levels, percent of the wild-type phenotype [3]: (57) percent of the wild-type phenotype
Induced ROS levels, percent of the wild-type phenotype [3]: (70) percent of the wild-type phenotype
Induced ROS levels [3]: 8.1 ± 1.1 Fluorescence Unit × 100/μg Pro
Cell multiplication, percent of the wild-type phenotype [4]: (99) percent of the wild-type phenotype
Cell multiplication [4]: 25.0 ± 4.8 ×10^5 cells
Cell multiplication, percent of the wild-type phenotype [5]: (75) percent of the wild-type phenotype
Cell multiplication [5]: 18.9 ± 2.8 ×10^5 cells
Resistance of mclk1 −/− cells to cell death-inducing agents upon treatment with sodium pyruvate ([1]; etoposide, anisomycin, all-trans retinoic acid, serum withdrawal): indistinguishable from that of the mclk1 +/+ cells
Oxygen consumption [6]: 9.1 ± 0.4 103 μl O2/sec/μg of protein
Oxygen consumption, percent of the wild-type phenotype [6]: (98) percent of the wild-type phenotype
Resistance to menadione [% viability] [7]: 23 ± 7.5 % viability
Resistance to menadione, percent of the wild-type phenotype [7]: (101) percent of the wild-type phenotype
Resistance to menadione [% viability] [8]: 68.9 ± 6.5 % viability
Resistance to menadione, percent of the wild-type phenotype [8]: (304) percent of the wild-type phenotype
LIF requirement, percent of the wild-type phenotype [9]: (418) percent of the wild-type phenotype
LIF requirement [% undifferentiated colonies, n = 300] [10]: 39.3 ± 12.7 % undifferentiated colonies
LIF requirement, percent of the wild-type phenotype [10]: (90) percent of the wild-type phenotype
Oxygen consumption [11]: 7.9 ± 0.4 103 μl O2/sec/μg of protein
Oxygen consumption, percent of the wild-type phenotype [11]: (85) percent of the wild-type phenotype
Effect on low respiration, slow growth, and LIF resistance phenotypes [11]: ameliorated

CN[C@@H]1C[C@H]2O[C@@](C)([C@@H]1OC)n1c3ccccc3c3c4c(c5c6ccccc6n2c5c31)C(=O)NC4 [staurosporine]
Sensitivity of mclk1 −/− ES cells to the cell death-inducing agent [1]: neither resistant nor hyper-sensitive

CC1=CC(=O)c2ccccc2C1=O [menadione]
Sensitivity of mclk1 −/− ES cells to the cell death-inducing agent [1]: resistance
Resistance to menadione [% viability] [7]: 22.7 ± 5.4 % viability
Resistance to menadione, percent of the wild-type phenotype [7]: (100) percent of the wild-type phenotype
Resistance to menadione [% viability] [8]: 68.4 ± 5.4 % viability
Resistance to menadione, percent of the wild-type phenotype [8]: (304) percent of the wild-type phenotype

COc1cc([C@@H]2c3cc4c(cc3[C@@H](O[C@@H]3O[C@@H]5CO[C@@H](C)O[C@H]5[C@H](O)[C@H]3O)[C@H]3COC(=O)[C@H]23)OCO4)cc(OC)c1O [etoposide]
Sensitivity of mclk1 −/− ES cells to the cell death-inducing agent [1]: resistant

COC1=C(OC)C(=O)C(C/C=C(\C)CC/C=C(\C)CC/C=C(\C)CC/C=C(\C)CC/C=C(\C)CC/C=C(\C)CC/C=C(\C)CC/C=C(\C)CC/C=C(\C)CCC=C(C)C)=C(C)C1=O [UQ9, ubiquinone]
Basal ROS levels [2]: 3.8 ± 0.2 Fluorescence Unit × 100/μg pro
Basal ROS levels, percent of the wild-type phenotype [2]: (94) percent of the wild-type phenotype
Induced ROS levels, percent of the wild-type phenotype [2]: (100) percent of the wild-type phenotype
Induced ROS levels [2]: 11.5 ± 0.5 Fluorescence Unit × 100/μg Pro
Basal ROS levels [3]: 2.4 ± 0.3 Fluorescence Unit × 100/μg pro
Basal ROS levels, percent of the wild-type phenotype [3]: (59) percent of the wild-type phenotype
Induced ROS levels, percent of the wild-type phenotype [3]: (57) percent of the wild-type phenotype
Induced ROS levels [3]: 6.7 ± 1.2 Fluorescence Unit × 100/μg Pro
Cell multiplication, percent of the wild-type phenotype [4]: (100) percent of the wild-type phenotype
Cell multiplication [4]: 25.3 ± 5.5 ×10^5 cells
Cell multiplication, percent of the wild-type phenotype [5]: (69) percent of the wild-type phenotype
Cell multiplication [5]: 17.5 ± 0.4 ×10^5 cells
Oxygen consumption [6]: 8.96 ± 0.8 103 μl O2/sec/μg of protein
Oxygen consumption, percent of the wild-type phenotype [6]: (96) percent of the wild-type phenotype
Resistance to menadione [% viability] [7]: 24 ± 2.9 % viability
Resistance to menadione, percent of the wild-type phenotype [7]: (105) percent of the wild-type phenotype
Resistance to menadione [% viability] [8]: 91.3 ± 3.4 % viability
Resistance to menadione, percent of the wild-type phenotype [8]: (403) percent of the wild-type phenotype
Mitochondrial complex II activity without exogenous Q1 ([12]; mclk1 −/− ES cells grown with the supplement): 9.1 ± 0.5 nmol/min/mg protein
Mitochondrial complex II activity with exogenous Q1 ([12]; mclk1 −/− ES cells grown with the supplement, Q1 added in vitro): 39.0 ± 3.5 nmol/min/mg protein
Mitochondrial complex II activity with exogenous Q1, percent of the wild-type phenotype [12, 13]: (64) percent of the wild-type phenotype
Mitochondrial complex II activity without exogenous Q1, percent of the wild-type phenotype [12, 13]: (60) percent of the wild-type phenotype
LIF requirement, percent of the wild-type phenotype [9]: (446) percent of the wild-type phenotype
LIF requirement [% undifferentiated colonies, n = 300] [10]: 39.0 ± 18.5 % undifferentiated colonies
LIF requirement, percent of the wild-type phenotype [10]: (90) percent of the wild-type phenotype
Oxygen consumption [11]: 6.8 ± 0.7 103 μl O2/sec/μg of protein
Oxygen consumption, percent of the wild-type phenotype [11]: (72) percent of the wild-type phenotype
Effect on low respiration, slow growth, and LIF resistance phenotypes [11]: ameliorated
